Test results from patent US9567339B2, “Primary carboxamides as BTK inhibitors” (AbbVie Inc., priority 2013, dated 2017).

molecular target: BTK, recombinant human catalytic domain (aa 393-659) (Homo sapiens (Human), UniProt Q06187); experiment: In vitro BTK kinase activity measured by time-resolved fluorescence resonance energy transfer (trFRET); format: biochemical; conditions: read-out: Btk IC50
Sequence (Q06187 393-659): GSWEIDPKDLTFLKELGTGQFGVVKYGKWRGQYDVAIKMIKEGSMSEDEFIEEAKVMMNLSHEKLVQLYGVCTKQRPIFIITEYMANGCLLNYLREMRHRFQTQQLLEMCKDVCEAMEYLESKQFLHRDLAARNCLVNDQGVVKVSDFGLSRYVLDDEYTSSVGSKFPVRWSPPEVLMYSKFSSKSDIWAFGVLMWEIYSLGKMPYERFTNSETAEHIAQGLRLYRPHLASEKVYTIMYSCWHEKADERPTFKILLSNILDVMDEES

IC50 [nM]	Compound
100 to 1000	NC(=O)c1ccc(N2CCC[C@@H](n3cnc4ccccc4c3=O)C2)c2cc(-c3ccc(F)cc3)[nH]c12 [O.1.14*]
100 to 1000	Cn1cc(-c2cc3c(N4CCC[C@@H](n5cnc6ccccc6c5=O)C4)ccc(C(N)=O)c3[nH]2)cn1 [O.1.16*]
100 to 1000	Cn1cc(-c2cc3c(N4CCC[C@@H](NC(=O)c5ccc(C(F)(F)F)cc5)C4)ccc(C(N)=O)c3[nH]2)cn1 [O.1.21*]
100 to 1000	Cn1cc(-c2cc3c(N4CCC[C@@H](NC(=O)c5ccc(C(F)F)cc5)C4)ccc(C(N)=O)c3[nH]2)cn1 [O.1.22*]
100 to 1000	Cn1cc(-c2cc3c(N4CCC[C@@H](NC(=O)c5ccc(C(C)(C)C(N)=O)cc5)C4)ccc(C(N)=O)c3[nH]2)cn1 [O.1.23*]
100 to 1000	Cn1cc(-c2cc3c(N4CCC[C@@H](NC(=O)c5ccc(OC(F)(F)F)cc5)C4)ccc(C(N)=O)c3[nH]2)cn1 [O.1.24*]
< 100	Cn1cc(-c2cc3c(N4CCC[C@@H](NC(=O)c5ccc(C6CC6)cc5)C4)ccc(C(N)=O)c3[nH]2)cn1 [O.1.25*]
100 to 1000	NC(=O)c1ccc(N2CCC[C@@H](n3cnc4ccccc4c3=O)C2)c2cc(-c3cccnc3)[nH]c12 [O.1.27*]
1000 to 10000	Cc1ccc(-c2cc3c(Cc4c(Cl)cccc4Cl)ccc(C(N)=O)c3[nH]2)cc1 [U.1.1]

The next lines start with the molecule.

Compound	IC50 [nM]
CC(C)(C)c1cc(C(=O)N[C@@H]2CCCN(c3ccc(C(N)=O)c4[nH]ccc34)C2)no1 [O.1.10*]	1000 to 10000
CC(C)(C)c1ccc(C(=O)N[C@@H]2CCCN(c3ccc(C(N)=O)c4[nH]ccc34)C2)cc1 [O.1.11*]	1000 to 10000
NC(=O)c1ccc(N2CCC[C@@H](n3cnc4ccccc4c3=O)C2)c2cc[nH]c12 [O.1.12*]	1000 to 10000
NC(=O)c1ccc(N2CCCC(n3cnc4cc(C5CC5)cc(F)c4c3=O)C2)c2cc[nH]c12 (stereo not drawn) [O.1.13]	1000 to 10000
NC(=O)c1ccc(N2CCC[C@@H](n3cnc4ccc(F)cc4c3=O)C2)c2cc(-c3ccc(F)cc3)[nH]c12 [O.1.15*]	1000 to 10000
Cn1cc(-c2cc3c(N4CCC[C@@H](N5Cc6ccc(F)cc6C5=O)C4)ccc(C(N)=O)c3[nH]2)cn1 [O.1.18*]	1000 to 10000
Cn1cc(-c2cc3c(N4CCC[C@@H](NC(=O)c5ccc(C(C)(C)C)cc5)C4)ccc(C(N)=O)c3[nH]2)cn1 [O.1.19*]	< 100
COc1ccc(C(=O)N[C@@H]2CCCN(c3ccc(C(N)=O)c4[nH]c(-c5cnn(C)c5)cc34)C2)cc1 [O.1.20*]	100 to 1000
CC(C)(C)c1ccc(C(=O)N[C@@H]2CCCN(c3ccc(C(N)=O)c4[nH]c(-c5cccnc5)cc34)C2)cc1 [O.1.26]	< 100
Cc1ccc(-c2cc3c(-c4nccs4)ccc(C(N)=O)c3[nH]2)cc1 [U.1.2]	< 100
Cc1ccc(-c2cc3c(-c4ccccn4)ccc(C(N)=O)c3[nH]2)cc1 [U.1.3]	100 to 1000

same assay, conditions: trFRET, 0.001 mM ATP, biotin-TYR1 peptide substrate; read-out: Btk IC50

IC50 [nM]	Compound
100 to 1000	Cc1ccc(-c2cc3c(Nc4ccnn4C)ccc(C(N)=O)c3[nH]2)cc1 [Preparation #T.1, 4-(1-Methyl-1H-pyrazol-5-ylamino)-2-p-tolyl-1H-indole-7-carboxamide]
